Assays:
Assay type in all cases: in vivo
[1] = system: redroot pigweed (Amaranthus retroflexus, AMARE); test: Pre-emerge test, greenhouse herbicide activity screening; settings: phytotoxicity rating 0-100, 14 days after application
Summary of the method: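 Compounds in acetone were track-sprayed at 15-1000 g ai/ha (187 l/ha) on sandy loam pots: pre-emerge one day after seeding, post-emerge at 2-3 leaf stage with 0.25% v/v non-ionic surfactant. Phytotoxicity was rated 14 days later on a 0 (no damage) to 100 (complete death) scale.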

[2] = system: barnyardgrass (Echinochloa crus-galli, ECHCG); test: as above; settings: phytotoxicity rating 0-100, 14 days after application
Summary of the method: (§1)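 Rating: 0–100 visual injury, 14 DAA. Application: acetone, 187 l/ha, 15–1000 g ai/ha, flat-fan track sprayer with nozzle 40–45 cm above soil or canopy. Post-emerge runs used 0.25% v/v surfactant on 2–3 leaf plants.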

[3] = system: green foxtail (Setaria viridis, SETVI); test: as above; settings: phytotoxicity rating 0-100, 14 days after application
Summary of the method: as §1

[4] = system: ivyleaf morningglory (Ipomoea hederacea, IPOHE); test: as above; settings: phytotoxicity rating 0-100, 14 days after application
Summary of the method: as §1

[5] = system: johnsongrass (Sorghum halepense, SORHA); test: as above; settings: phytotoxicity rating 0-100, 14 days after application
Summary of the method: as §1

[6] = system: lambsquarters (Chenopodium album, CHEAL); test: as above; settings: phytotoxicity rating 0-100, 14 days after application
Summary of the method: as §1

[7] = system: large crabgrass (Digitaria sanguinalis, DIGSA); test: as above; settings: phytotoxicity rating 0-100, 14 days after application
Summary of the method: as §1

[8] = system: sicklepod (Cassia obtusifolia, CASOB); test: as above; settings: phytotoxicity rating 0-100, 14 days after application
Summary of the method: as §1

[9] = system: velvetleaf (Abutilon theophrasti, ABUTH); test: as above; settings: phytotoxicity rating 0-100, 14 days after application
Summary of the method: as §1

[10] = system: field corn (Zea mays L., var. Dekalb 535, CORN); test: Pre-emerge test, crop safety; settings: crop damage rating 0-100, 14 days after application
Summary of the method: as §1

[11] = system: upland rice (Oryza sp., var. Tebonnet, RICE); test: Pre-emerge test, crop safety; settings: crop damage rating 0-100, 14 days after application
Summary of the method: as §1

[12] = system: barnyardgrass (Echinochloa crus-galli, ECHCG); test: Post-emerge test, greenhouse herbicide activity screening; settings: post-emerge, 14 days after application, rating scale 0-100
Summary of the method: (§2)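 Each test used a mechanized track sprayer delivering 187 l/ha of acetone solution at 15–1000 g ai/ha. Post-emerge foliage at 2–3 leaves was treated with added 0.25% v/v non-ionic surfactant and bottom-watered only. Injury was assessed on day 14, where 100 means total kill.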

[13] = system: green foxtail (Setaria viridis, SETVI); test: as above; settings: post-emerge, 14 days after application, rating scale 0-100
Summary of the method: as §2

[14] = system: ivyleaf morningglory (Ipomoea hederacea, IPOHE); test: as above; settings: post-emerge, 14 days after application, rating scale 0-100
Summary of the method: as §2

[15] = system: johnsongrass (Sorghum halepense, SORHA); test: as above; settings: post-emerge, 14 days after application, rating scale 0-100
Summary of the method: as §2

[16] = system: lambsquarters (Chenopodium album, CHEAL); test: as above; settings: post-emerge, 14 days after application, rating scale 0-100
Summary of the method: as §2

[17] = system: large crabgrass (Digitaria sanguinalis, DIGSA); test: as above; settings: post-emerge, 14 days after application, rating scale 0-100
Summary of the method: as §2

[18] = system: redroot pigweed (Amaranthus retroflexus, AMARE); test: as above; settings: post-emerge, 14 days after application
Summary of the method: as §2

[19] = system: sicklepod (Cassia obtusifolia, CASOB); test: as above; settings: post-emerge, 14 days after application, rating scale 0-100
Summary of the method: as §2

[20] = system: velvetleaf (Abutilon theophrasti, ABUTH); test: as above; settings: post-emerge, 14 days after application, rating scale 0-100
Summary of the method: as §2

[21] = system: field corn (Zea mays L., var. Dekalb 535, CORN); test: Post-emerge test, crop safety; settings: post-emerge, 14 days after application, rating scale 0-100
Summary of the method: (§3)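 Plants grown in 10 cm pots of sandy loam mix received acetone-dissolved compounds through a moving flat-fan nozzle. Doses ranged from 15 to 1000 g ai/ha. Pre-emerge pots were seeded one day earlier, post-emerge pots 8–21 days earlier. Fourteen days on, each pot was graded 0–100 for damage.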

[22] = system: upland rice (Oryza sp., var. Tebonnet, RICE); test: Post-emerge test, crop safety; settings: post-emerge, 14 days after application, rating scale 0-100
Summary of the method: as §3

[23] = 63 g ai/ha, rating scale 0-100 (0 no damage, 100 complete death)
[24] = 250 g ai/ha, rating scale 0-100

## Cc1c(Cl)cc(F)c(-n2c(=O)cc(C(F)(F)F)n(C)c2=O)c1NC(=O)OCc1ccccc1Cl [4-54]
[1]; 63 g ai/ha
  Pre-emerge Herbicidal Activity AMARE: 100
[1]; 250 g ai/ha
  Pre-emerge Herbicidal Activity AMARE: 100
[2]; 63 g ai/ha
  Pre-emerge Herbicidal Activity ECHCG: 50
[2]; 250 g ai/ha
  Pre-emerge Herbicidal Activity ECHCG: 85
[3]; 63 g ai/ha
  Pre-emerge Herbicidal Activity SETVI: 90
[3]; 250 g ai/ha
  Pre-emerge Herbicidal Activity SETVI: 100
[4]; 63 g ai/ha
  Pre-emerge Herbicidal Activity IPOHE: 30
[4]; 250 g ai/ha
  Pre-emerge Herbicidal Activity IPOHE: 70
[5]; 63 g ai/ha
  Pre-emerge Herbicidal Activity SORHA: 30
[5]; 250 g ai/ha
  Pre-emerge Herbicidal Activity SORHA: 80
[6]; 63 g ai/ha
  Pre-emerge Herbicidal Activity CHEAL: 90
[6]; 250 g ai/ha
  Pre-emerge Herbicidal Activity CHEAL: 100
[7]; 63 g ai/ha
  Pre-emerge Herbicidal Activity DIGSA: 60
[7]; 250 g ai/ha
  Pre-emerge Herbicidal Activity DIGSA: 100
[8]; 63 g ai/ha
  Pre-emerge Herbicidal Activity CASOB: 30
[8]; 250 g ai/ha
  Pre-emerge Herbicidal Activity CASOB: 80
[9]; 63 g ai/ha
  Pre-emerge Herbicidal Activity ABUTH: 100
[9]; 250 g ai/ha
  Pre-emerge Herbicidal Activity ABUTH: 90
[10]; 63 g ai/ha
  Pre-emerge Herbicidal Activity CORN: 0
[10]; 250 g ai/ha
  Pre-emerge Herbicidal Activity CORN: 5
[11]; 63 g ai/ha
  Pre-emerge Herbicidal Activity RICE: 10
[11]; 250 g ai/ha
  Pre-emerge Herbicidal Activity RICE: 60
[12]; 63 g ai/ha
  phytotoxicity rating ECHCG: 70
[12]; 250 g ai/ha
  phytotoxicity rating ECHCG: 80
[13]; 63 g ai/ha
  phytotoxicity rating SETVI: 80
[13]; 250 g ai/ha
  phytotoxicity rating SETVI: 90
[14]; 63 g ai/ha
  phytotoxicity rating IPOHE: 100
[14]; 250 g ai/ha
  phytotoxicity rating IPOHE: 100
[15]; 63 g ai/ha
  phytotoxicity rating SORHA: 40
[15]; 250 g ai/ha
  phytotoxicity rating SORHA: 70
[16]; 63 g ai/ha
  phytotoxicity rating CHEAL: 100
[16]; 250 g ai/ha
  phytotoxicity rating CHEAL: 100
[17]; 63 g ai/ha
  phytotoxicity rating DIGSA: 30
[17]; 250 g ai/ha
  phytotoxicity rating DIGSA: 60
[18]; [23]
  phytotoxicity rating AMARE: 100
[18]; [24]
  phytotoxicity rating AMARE: 100
[19]; 63 g ai/ha
  phytotoxicity rating CASOB: 90
[19]; 250 g ai/ha
  phytotoxicity rating CASOB: 100
[20]; 63 g ai/ha
  phytotoxicity rating ABUTH: 100
[20]; 250 g ai/ha
  phytotoxicity rating ABUTH: 100
[21]; 63 g ai/ha
  phytotoxicity rating CORN (crop damage): 40
[21]; 250 g ai/ha
  phytotoxicity rating CORN (crop damage): 75
[22]; 63 g ai/ha
  phytotoxicity rating RICE (crop damage): 90
[22]; 250 g ai/ha
  phytotoxicity rating RICE (crop damage): 100

## Cn1c(C(F)(F)F)cc(=O)n(-c2c(F)cc(Cl)c(OCC#N)c2NC(=O)OCc2ccccc2)c1=O [4-23]
[1]; 63 g ai/ha
  Pre-emerge Herbicidal Activity AMARE: 100
[1]; 250 g ai/ha
  Pre-emerge Herbicidal Activity AMARE: 100
[2]; 63 g ai/ha
  Pre-emerge Herbicidal Activity ECHCG: 80
[2]; 250 g ai/ha
  Pre-emerge Herbicidal Activity ECHCG: 95
[3]; 63 g ai/ha
  Pre-emerge Herbicidal Activity SETVI: 80
[3]; 250 g ai/ha
  Pre-emerge Herbicidal Activity SETVI: 100
[4]; 63 g ai/ha
  Pre-emerge Herbicidal Activity IPOHE: 100
[4]; 250 g ai/ha
  Pre-emerge Herbicidal Activity IPOHE: 80
[5]; 63 g ai/ha
  Pre-emerge Herbicidal Activity SORHA: 70
[5]; 250 g ai/ha
  Pre-emerge Herbicidal Activity SORHA: 90
[6]; 63 g ai/ha
  Pre-emerge Herbicidal Activity CHEAL: 100
[6]; 250 g ai/ha
  Pre-emerge Herbicidal Activity CHEAL: 100
[7]; 63 g ai/ha
  Pre-emerge Herbicidal Activity DIGSA: 80
[7]; 250 g ai/ha
  Pre-emerge Herbicidal Activity DIGSA: 100
[8]; 63 g ai/ha
  Pre-emerge Herbicidal Activity CASOB: 80
[8]; 250 g ai/ha
  Pre-emerge Herbicidal Activity CASOB: 100
[9]; 63 g ai/ha
  Pre-emerge Herbicidal Activity ABUTH: 100
[9]; 250 g ai/ha
  Pre-emerge Herbicidal Activity ABUTH: 100
[10]; 63 g ai/ha
  Pre-emerge Herbicidal Activity CORN: 35
[10]; 250 g ai/ha
  Pre-emerge Herbicidal Activity CORN: 90
[11]; 63 g ai/ha
  Pre-emerge Herbicidal Activity RICE: 60
[11]; 250 g ai/ha
  Pre-emerge Herbicidal Activity RICE: 90
[12]; 63 g ai/ha
  phytotoxicity rating ECHCG: 20
[12]; 250 g ai/ha
  phytotoxicity rating ECHCG: 60
[13]; 63 g ai/ha
  phytotoxicity rating SETVI: 40
[13]; 250 g ai/ha
  phytotoxicity rating SETVI: 70
[14]; 63 g ai/ha
  phytotoxicity rating IPOHE: 100
[14]; 250 g ai/ha
  phytotoxicity rating IPOHE: 100
[15]; 63 g ai/ha
  phytotoxicity rating SORHA: 10
[15]; 250 g ai/ha
  phytotoxicity rating SORHA: 50
[16]; 63 g ai/ha
  phytotoxicity rating CHEAL: 80
[16]; 250 g ai/ha
  phytotoxicity rating CHEAL: 100
[17]; 63 g ai/ha
  phytotoxicity rating DIGSA: 10
[17]; 250 g ai/ha
  phytotoxicity rating DIGSA: 40
[18]; [23]
  phytotoxicity rating AMARE: 100
[18]; [24]
  phytotoxicity rating AMARE: 100
[19]; 63 g ai/ha
  phytotoxicity rating CASOB: 80
[19]; 250 g ai/ha
  phytotoxicity rating CASOB: 100
[20]; 63 g ai/ha
  phytotoxicity rating ABUTH: 100
[20]; 250 g ai/ha
  phytotoxicity rating ABUTH: 100
[21]; 63 g ai/ha
  phytotoxicity rating CORN (crop damage): 35
[21]; 250 g ai/ha
  phytotoxicity rating CORN (crop damage): 80
[22]; 63 g ai/ha
  phytotoxicity rating RICE (crop damage): 60
[22]; 250 g ai/ha
  phytotoxicity rating RICE (crop damage): 80

From patent US6355799B1, “Substituted benzene compounds, process for their preparation, and herbicidal and defoliant compositions containing them” (ISK Americas Incorporated, priority 1997, dated 2002)
